Results from patent publication US20230381142A1, “ANTILEISHMANIAL COMPOUNDS, COMPOSITIONS AND USE THEREOF” (TRUSTEES OF BOSTON UNIVERSITY, priority 2022, published 2023).
Where two headings read alike, the source gives them in different places.

Columns and labels:
[1] = tested on: L. donovani intracellular amastigotes infecting THP-1 macrophages; assay: GSK intramacrophage L. donovani assay (LD AMMAC, inMac; Assay Conditions C); format: cell-based; settings: Leishmania donovani
Procedure: Assay Conditions C: The intramacrophage Leishmania donovani activity assay was performed as described in Antimicrob Agents Chemother (2013) 57(7):2913-22.
(§1) The intramacrophage Leishmania donovani activity assay (LD AMMAC) at GlaxoSmithKline was performed as described.
(§2) Given the literature precedents described above and the apparent narrow tolerance for R^3 substitutions observed in the primary screen compounds, a thorough and methodical assessment was undertaken of tolerated groups at the three points of diversity (R^1/R^2/R^3) for the core. At this stage of the project, all analogues were assessed using a battery of assays performed in-house at GlaxoSmithKline. For antileishmanial activity, GSK's inMac assay was utilized. This assay provides two readouts of compound potency: average number of intracellular amastigotes per infected cell (AMMAC) EC50, percentage of infected cells per well (INFCELL) EC50, as well as a toxicity output derived from the number of host cells (MAC EC50). In addition, compounds were assessed for toxicity against HepG2 cells (HEPG2 EC50). Here, AMMAC EC50 values were focused on for relative potency assessments. […] It should be noted that for all compounds assessed in this project, the measured toxicity against THP-1 macrophages either equaled or exceeded that of HepG2 hepatocytes, therefore the MAC SI is used here as the more conservative estimate of therapeutic index.

[2] = GSK inMac assay, host cell toxicity readout (LD MAC); format: cell-based, human; settings: human
Procedure: as §1, §2

[3] = THP-1 cells, values marked c, read-out: L. donovani amastigotes EC50 (THP-1 cells)
[4] = footnote c, read-out: THP-1 Host Cell CC50
[5] = values marked c: THP-1 cells, read-out: L. donovani amastigotes EC50 (μM, THP-1 or B10R cells)

EC50 [1, 3] [µM] | EC50 [1, 5] [µM] | Structure (SMILES) | CC50 [2, 4] [µM] | CC50 ([2]; host THP-1 cells) [µM]
> 50 |  | CC(C)Cc1n[nH]c2c1C(c1ccc(F)cc1)N(c1ccc(C(=O)O)cc1)C2=O (centres unmarked) [CMLD011031] | > 50 | 
7.9 |  | CC(C)Cc1n[nH]c2c1C(c1cccc(C(F)(F)F)c1)N(c1ccc3ncnn3c1)C2=O (centres unmarked) [BUCMD00804] | ≥ 50.1 | 
> 100 |  | CC(C)Cc1n[nH]c2c1C(c1ccc(F)cc1)N(c1ccc(S(=O)(=O)N3CCCC3)cc1)C2=O (centres unmarked) [CMLD011558] | 20 | 
1.3 |  | CC(C)Cc1n[nH]c2c1C(c1ccc(F)cc1)N(c1ccc(Br)cc1)C2=O (centres unmarked) [CMLD010897] | 15.9 | 
6.3 |  | COc1ccc(N2C(=O)c3[nH]nc(CC(C)C)c3[C@H]2c2ccc(F)cc2C)cc1 [CMLD010950] | 31.6 | 
31.6 |  | CC(C)Cc1n[nH]c2c1C(c1ccccc1Br)N(CCN1CCCC1)C2=O (centres unmarked) [BUCMD00798] | > 50 | 
7.9 |  | COc1ccc(N2C(=O)c3[nH]nc(CC(C)C)c3C2C2CCCCC2)cc1 (centres unmarked) [CMLD010892] | 25.1 | 
> 100 |  | CC(C)Cc1n[nH]c2c1C(c1ccc(F)cc1)N(c1ccc3[nH]cnc3c1)C2=O (centres unmarked) [CMLD011557] | 20 | 
6.3 |  | CC(C)Cc1n[nH]c2c1C(c1cccc(C(F)(F)F)c1)N(c1ccc(C(C)(C)C)cc1)C2=O (centres unmarked) [CMLD011122] | 10 | 
> 100 |  | COc1ccc(N2C(=O)c3[nH]nc(CC(C)C)c3C2c2ncccc2OC)cc1 (centres unmarked) [CMLD011578] | 20 | 
2.5 |  | CC(C)Cc1n[nH]c2c1C(c1ccc(F)cc1)N(c1ccc(-n3ccnc3)cc1)C2=O (centres unmarked) [BUCMD00815] | > 50 | 
15.9 |  | Cc1ccc(CN2C(=O)c3[nH]nc(CC(C)C)c3C2c2ccc(F)cc2)o1 (centres unmarked) [CMLD011092] | 39.8 | 
12.6 |  | COc1ccccc1N1C(=O)c2[nH]nc(CC(C)C)c2C1c1ccccc1Br (centres unmarked) [CMLD011112] | 25.1 | 
10 |  | CC(C)Cc1n[nH]c2c1[C@H](c1ccc(F)cc1)N(c1ccc3ncnn3c1)C2=O [CMLD010993] | 25.1 | 
20 |  | COc1ccc(N2C(=O)c3[nH]nc(CC(C)C)c3C2C2CCCCC2)cn1 (centres unmarked) [CMLD010903] | 31.6 | 
7.9 |  | CC(C)Cc1n[nH]c2c1C(c1c(Cl)cccc1Cl)N(c1ccc(Br)cc1)C2=O (centres unmarked) [CMLD011550] | 20 | 
20 |  | CCn1nc2c(c1CC(C)C)C(c1ccc(F)cc1)N(c1ccc(OC)cc1)C2=O (centres unmarked) [BUCMD00810] | > 50 | 
5 |  | COc1ccc(N2C(=O)c3[nH]nc(CC(C)C)c3C2c2ccc(F)c(F)c2)cc1 (centres unmarked) [CMLD013640] | 25.1 | 
4 |  | COc1ccc(N2C(=O)c3[nH]nc(CC(C)C)c3C2c2ccc(Cl)cc2)cc1 (centres unmarked) [CMLD011096] | 15.9 | 
20 |  | COc1ccccc1N1C(=O)c2[nH]nc(CC(C)C)c2C1c1ccc(F)cc1 (centres unmarked) [CMLD011046] | > 50 | 
1.6 |  | C=CCCc1n[nH]c2c1C(c1ccc(F)cc1)N(c1ccc(OC)cc1)C2=O (centres unmarked) [CMLD011024] | 3.2 | 

EC50 [1, 3] [µM] | EC50 [1, 5] [µM] | Structure (SMILES) | CC50 [2, 4] [µM] | CC50 ([2]; host THP-1 cells) [µM]
> 100 |  | CC(C)Cc1n[nH]c2c1C(c1ccc(F)cc1)N(c1ccc(S(N)(=O)=O)cc1)C2=O (centres unmarked) [CMLD011495] | 20 | 
1.6 |  | COc1ccc(N2C(=O)c3c(c(CC(C)C)nn3C)C2c2ccc(F)cc2)cc1 (centres unmarked) [CMLD010989] | 25.1 | 
 | 7.9 | CCCn1nc2c(c1CC(C)C)C(c1ccc(F)cc1)N(c1ccc(OC)cc1)C2=O (centres unmarked) [CMLD010990] |  | 25.1
12.6 |  | COCn1nc(CC(C)C)c2c1C(=O)N(c1ccc(OC)cc1)C2c1ccc(F)cc1 (centres unmarked) [BUCMD00813] | 31.6 | 
5 |  | COc1ccc(N2C(=O)c3[nH]nc(CC(C)C)c3C2c2c(Cl)cccc2Cl)cn1 (centres unmarked) [CMLD011569] | 20 | 
7.9 |  | CC(C)Cc1n[nH]c2c1C(c1cccc(C(F)(F)F)c1)N(c1ccc(N(C)C)cc1)C2=O (centres unmarked) [CMLD010925] | 20 | 
 | 10 | COC(=O)c1ccc(N2C(=O)c3[nH]nc(CC(C)C)c3C2c2cccc(C(F)(F)F)c2)cc1 (centres unmarked) [CMLD011080] |  | 39.8
25.1 |  | CO[C@H]1CC[C@H](N2C(=O)c3[nH]nc(CC(C)C)c3C2c2ccc(F)cc2)CC1 (some centres unmarked) [CMLD011036] | > 50 | 
10 |  | COc1ccc(N2C(=O)c3[nH]nc(CC(C)C)c3C2c2ccsc2)cn1 (centres unmarked) [CMLD011137] | 25.1 | 
4 |  | CCn1nc(CC(C)C)c2c1C(=O)N(c1ccc(OC)cc1)C2c1ccc(F)cc1 (centres unmarked) [BUCMD00809] | 39.8 | 
5 |  | CC(C)Cc1n[nH]c2c1C(c1ccc(F)cc1)N(c1ccc(O)cc1)C2=O (centres unmarked) [CMLD011029] | 39.8 | 
10 |  | COc1ccc(N2C(=O)c3[nH]nc(-c4ccc(OCc5ccccc5)cc4)c3C2c2ccc(F)cc2)cc1 (centres unmarked) [BUCMD00811] | 15.8 | 
5 |  | CCCn1nc(CC(C)C)c2c1C(=O)N(c1ccc(OC)cc1)C2c1ccc(F)cc1 (centres unmarked) [CMLD010982] | 25.1 | 
3.2 |  | COc1ccc(N2C(=O)c3[nH]nc(CC4CCCCC4)c3C2c2ccc(F)cc2)cc1 (centres unmarked) [BUCMD00812] | 20 | 
10 |  | COc1ccc(N2C(=O)c3[nH]nc(CC(C)C)c3C2c2ccccc2Cl)c(OC)c1 (centres unmarked) [CMLD011103] | 20 | 
15.8 |  | COc1ccccc1N1C(=O)c2[nH]nc(CC(C)C)c2C1c1ccccc1Cl (centres unmarked) [CMLD011130] | 25.1 | 
> 50 |  | COc1ccc(N2C(=O)c3[nH]nc(CC(C)C)c3C2c2ccnnc2)cc1 (centres unmarked) [BUCMD00801] | > 50 | 
1.3 |  | Cc1cc(F)ccc1C1c2c(CC(C)C)n[nH]c2C(=O)N1c1ccc(-n2ccnc2)cc1 (centres unmarked) [CMLD010926] | 25.1 | 
12.6 |  | CC(C)Cc1n[nH]c2c1C(c1ccc(F)cc1)N(c1ccc(F)cc1F)C2=O (centres unmarked) [CMLD011097] | 39.8 | 
31.6 |  | CC(C)Cc1n[nH]c2c1C(c1ccc(F)cc1)N(C1CCOCC1)C2=O (centres unmarked) [CMLD011030] | > 50 | 
2.5 |  | CC(C)Cc1n[nH]c2c1C(c1ccc(F)cc1)N(c1ccc3c(c1)OC(F)(F)O3)C2=O (centres unmarked) [CMLD011105] | 12.6 | 

EC50 [1, 3] [µM] | EC50 [1, 5] [µM] | Structure (SMILES) | CC50 [2, 4] [µM] | CC50 ([2]; host THP-1 cells) [µM]
2.5 |  | CC(C)Cc1n[nH]c2c1C(C1CCCCC1)N(c1ccc(C(C)(C)C)cc1)C2=O (centres unmarked) [CMLD011042] | ≥ 50.1 | 
10 |  | COc1ccc(N2C(=O)c3[nH]nc(CC(C)C)c3C2c2ccncc2Cl)cc1 (centres unmarked) [CMLD011496] | 20 | 
2.5 |  | CC(C)Cc1n[nH]c2c1C(c1cccc(C(F)(F)F)c1)N(c1ccc(F)cc1)C2=O (centres unmarked) [CMLD011119] | 25.1 | 
12.6 |  | COc1ccc(N2C(=O)c3[nH]nc(CC(C)C)c3C2c2ccc(F)c(C)n2)cc1 (centres unmarked) [CMLD011120] | > 50 | 
31.6 |  | COc1cncc(N2C(=O)c3[nH]nc(CC(C)C)c3C2c2ccc(F)cc2)c1 (centres unmarked) [CMLD010883] | > 50 | 
> 50 |  | COc1ccc(N2C(=O)c3[nH]nc(CC(C)C)c3C2c2ccncc2)cc1 (centres unmarked) [CMLD011142] | > 50 | 
12.6 |  | COc1ccc(CN2C(=O)c3[nH]nc(CC(C)C)c3C2c2ccc(F)cc2)cc1 (centres unmarked) [CMLD011026] | 31.6 | 
10 |  | COc1ccc(N2C(=O)c3[nH]nc(CC(C)C)c3C2c2ccc(F)cc2)cn1 (centres unmarked) [BUCMD00808] | > 50 | 
0.5 |  | COc1ccc(N2C(=O)c3[nH]nc(CC(C)C)c3C2c2ccccc2Br)cc1 (centres unmarked) [CMLD010894] | 25.1 | 
> 100 |  | CC(C)Cc1n[nH]c2c1C(c1ccc(F)cc1)N(c1ccc3[nH]c(O)nc3c1)C2=O (centres unmarked) [CMLD011556] | 20 | 
2.5 |  | C=CCn1nc(CC(C)C)c2c1C(=O)N(c1ccc(OC)cc1)C2c1ccc(F)cc1 (centres unmarked) [CMLD010985] | 31.6 | 
12.6 |  | CC(C)Cc1n[nH]c2c1C(c1ccc(F)cc1)N(c1ccc(C#N)cc1)C2=O (centres unmarked) [BUCMD00807] | 25.1 | 
 | 6.3 | COc1cccc(N2C(=O)c3[nH]nc(CC(C)C)c3C2C2CCCCC2)c1 (centres unmarked) [CMLD011044] |  | ≥ 50.1
2 |  | COc1ccc(N2C(=O)c3[nH]nc(CC(C)C)c3C2c2ccc(F)cc2F)cc1 (centres unmarked) [CMLD011079] | 25.1 | 
4 |  | COc1ccc(N2C(=O)c3[nH]nc(-c4ccc(CC(C)C)cc4)c3C2c2ccc(F)cc2)cc1 (centres unmarked) [CMLD010979] | 7.9 | 
 | ≥ 50.1 | CC(C)Cc1n[nH]c2c1C(c1cccc(C(F)(F)F)c1)N(c1ccc(-n3ccnc3)cc1)C2=O (centres unmarked) [CMLD010924] |  | 39.8
5 |  | CC(C)Cc1n[nH]c2c1C(C1CCCCC1)N(c1ccc3c(c1)OCO3)C2=O (centres unmarked) [CMLD011043] | 15.8 | 
15.9 |  | COc1ccc(N2C(=O)c3[nH]nc(CC(C)C)c3C2C2CCN(Cc3ccccc3)CC2)cc1 (centres unmarked) [CMLD010882] | 20 | 
1 |  | COc1ccc(N2C(=O)c3[nH]nc(CC(C)C)c3C2c2c(Cl)cccc2Cl)cc1 (centres unmarked) [BUCMD00797] | 2.5 | 
